Data set [1] concerns the target recombinant human NF-kappaB-inducing kinase (NIK/MAP3K14) (Homo sapiens, UniProt Q99558). The experiment in a line: Inhibition of auto-phosphorylation of recombinant human NIK/MAP3K14 activity (AlphaScreen), Biological Assay A. To be noted: averaged values over all measurements on all batches. The format is biochemical. Put shortly: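 GST-tagged enzyme (0.2 nM) incubated with compound and 25 μM ATP in 50 mM Tris pH 7.5, 5 mM MgCl2, 1 mM EGTA, 1 mM DTT, 0.1 mM Na3VO4, 1% DMSO, 1 h at 25 °C. Stopped with anti-phospho-IKK Ser176/180 antibody; AlphaScreen bead read, blank-subtracted, IC50 from sigmoidal fit.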
For orientation: In Alpha technology, singlet oxygen from a donor bead excites a nearby acceptor bead.

Data set [2] relates to P-IKKα levels in L363 (NIK translocated multiple myeloma) cells. The experiment in a line: Effect of compounds on P-IKKα levels in L363 cells (Mesoscale sandwich immuno-assay), Biological Assay B. As to conditions: 2 hr treatment, averaged values, read-out: Inhibition of pIKKα_L-363 (IC50 (nM)). The format is cell-based, human. Put shortly: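 L363 NIK-translocated myeloma cells primed 24 h with 1 μg/ml BAFF (stock), then treated 2 h with compound (1% DMSO, 8-point 1:3 dilutions). Lysate P-IKKα measured by Mesoscale sandwich immunoassay; MG132+BAFF controls, blank with 10 μM ADS125117 subtracted. IC50 from sigmoidal fit of % inhibition versus log concentration.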

Data set [3] has as its system JJN-3 (NIK translocated) multiple myeloma cells. The experiment in a line: Antiproliferative activity on JJN-3 multiple myeloma cells (CellTiter-Glo, 96 hr), Biological Assay C. The format is cell-based, human. To be noted: JJN-3 (NIK translocated) cells, averaged values, read-out: JJN-3 Proliferation inhibition (IC50 (nM)). Put shortly:
(§1)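 JJN-3 and KMS12-BM cells in RPMI 1640 with 10% FCS were plated at 15000–20000 cells/well and treated 96 h with a 9-point 1:3 dilution series (0.3% DMSO). Viability read by CellTiter-Glo luminescence, blank (time-zero cells) subtracted, expressed as % of untreated control; duplicate wells.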

Data set [4] concerns KMS12-BM (NIK WT) multiple myeloma cells. The experiment in a line: Antiproliferative activity on KMS12-BM multiple myeloma cells (CellTiter-Glo, 96 hr), Biological Assay C. The format is cell-based, human. To be noted: averaged values, read-out: KMS-12 Proliferation inhibition (IC50 (nM)). An outline of the steps: as §1

These results are taken from US11180487B2, “Substituted cyanoindoline derivatives as NIK inhibitors” (Janssen Pharmaceutica NV, priority 2016, dated 2021).

Read-outs that look alike come from different tables or passages of the source.

Chain of recombinant human NF-kappaB-inducing kinase (NIK/MAP3K14) (Q99558 whole entry): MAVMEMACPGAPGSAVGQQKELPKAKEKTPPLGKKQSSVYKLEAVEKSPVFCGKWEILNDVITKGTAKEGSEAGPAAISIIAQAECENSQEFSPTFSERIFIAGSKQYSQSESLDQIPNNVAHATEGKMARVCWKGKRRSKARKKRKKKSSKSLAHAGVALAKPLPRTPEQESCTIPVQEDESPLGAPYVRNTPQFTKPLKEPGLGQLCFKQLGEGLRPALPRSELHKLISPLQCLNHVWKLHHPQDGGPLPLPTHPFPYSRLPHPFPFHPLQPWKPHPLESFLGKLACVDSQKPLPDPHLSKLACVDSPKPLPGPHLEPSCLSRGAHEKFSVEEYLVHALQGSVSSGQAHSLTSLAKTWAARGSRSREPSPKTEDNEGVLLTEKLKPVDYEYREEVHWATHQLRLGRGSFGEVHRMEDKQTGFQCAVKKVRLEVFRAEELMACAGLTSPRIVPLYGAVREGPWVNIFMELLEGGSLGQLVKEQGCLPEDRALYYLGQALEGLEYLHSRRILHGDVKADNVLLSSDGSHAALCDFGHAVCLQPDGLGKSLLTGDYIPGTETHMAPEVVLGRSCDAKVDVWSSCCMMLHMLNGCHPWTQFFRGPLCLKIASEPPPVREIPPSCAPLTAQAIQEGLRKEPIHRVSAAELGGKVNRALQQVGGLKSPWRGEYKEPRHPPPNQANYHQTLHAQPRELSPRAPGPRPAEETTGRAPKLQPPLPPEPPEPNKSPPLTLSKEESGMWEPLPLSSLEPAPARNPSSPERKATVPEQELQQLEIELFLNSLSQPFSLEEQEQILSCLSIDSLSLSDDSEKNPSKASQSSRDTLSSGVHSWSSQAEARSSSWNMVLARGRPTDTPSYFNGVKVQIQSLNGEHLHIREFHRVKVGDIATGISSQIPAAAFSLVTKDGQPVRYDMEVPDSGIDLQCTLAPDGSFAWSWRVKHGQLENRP

The term melting point denotes the temperature, or range, at which the solid turns liquid. Compound `COCCOc1ccc(Cl)cc1Nc1nccc(-c2cc(C#N)c3c(c2)[C@@](C)(CO)CN3)n1` [Compound 45] showed a melting point of 169 °C. Moreover, the IC50 in data set [1] was 9.1 nM. Moreover, the IC50 in data set [2] (Homo sapiens, L-363, 2 h) stood at 37.2 nM. Further, the IC50 in data set [3] (Homo sapiens, JJN-3, 96 h) was found to be 490 nM. Further, in data set [4] (Homo sapiens, KMS-12-BM, 96 h), the IC50 was more than 10000 nM.
The compound `COc1cc(P(C)(C)=O)ccc1Nc1nccc(-c2cc(C#N)c3c(c2)[C@@](C)(CO)CN3)n1` [Compound 64] had a melting point of 160 °C. In addition, the IC50 in data set [1] is 1.8 nM. The IC50 in data set [2] (Homo sapiens, L-363, 2 h) was determined as 18.2 nM. Further, in data set [3] (Homo sapiens, JJN-3, 96 h), the IC50 is approximately 246 nM. In addition, the IC50 in data set [4] (Homo sapiens, KMS-12-BM, 96 h) worked out at 1230 nM.
Turning to `Cc1ccc(C#N)cc1Nc1nccc(-c2cc(C#N)c3c(c2)[C@](C)(CO)CN3)n1` [Compound 65], the melting point was found to be 218 °C. Further, the IC50 in data set [1] was 4.1 nM. Further, the IC50 in data set [2] (Homo sapiens, L-363, 2 h) was 103 nM. In addition, the IC50 in data set [3] (Homo sapiens, JJN-3, 96 h) worked out at 1100 nM. For the same compound, the IC50 in data set [4] (Homo sapiens, KMS-12-BM, 96 h) was more than 10000 nM.
The corresponding values for `COCCOc1ccc(C#N)cc1Nc1nccc(-c2cc(C#N)c3c(c2)[C@@](C)(CO)CN3)n1` [Compound 66] are 165 °C, 3 nM, 5.9 nM, 251 nM and 19 nM.
Taken in the same sequence, the figures for `COc1cc(S(C)(=O)=O)ccc1Nc1nccc(-c2cc(C#N)c3c(c2)[C@@](C)(CO)CN3)n1` [Compound 73] were 201 °C, 2.2 nM, 1.4 nM, 68 nM and more than 10000 nM.
The compound `COCCCc1ccc(C#N)cc1Nc1nccc(-c2cc(C#N)c3c(c2)[C@@](C)(CO)CN3)n1` [Compound 74] displayed a melting point of 124 °C. Moreover, the IC50 in data set [1] amounted to 4 nM. The IC50 in data set [2] (Homo sapiens, L-363, 2 h) is 16.2 nM. Moreover, the IC50 in data set [3] (Homo sapiens, JJN-3, 96 h) was found to be 182 nM. Also, the IC50 in data set [4] (Homo sapiens, KMS-12-BM, 96 h) is approximately 1150 nM.
The corresponding values for `CN1CCC(Oc2ccc(Cl)cc2Nc2nccc(-c3cc(C#N)c4c(c3)C(C)(C)CN4)n2)CC1` [Compound 80] are 192 °C, 15.2 nM, 209 nM, 124 nM and 1000 nM.
Taken in the same sequence, the figures for `COc1cc(N2CCC(O)CC2)c(Cl)cc1Nc1nccc(-c2cc(C#N)c3c(c2)C(C)(C)CN3)n1` [Compound 105] were more than 250 °C, 28.5 nM, 22.9 nM, 118 nM and approximately 6610 nM.
Compound `COC(=O)c1cc(OC)c(Nc2nccc(-c3cc(C#N)c4c(c3)C(C)(C)CN4)n2)cc1Cl` [Compound 106] gave a melting point of 208 °C. The IC50 in data set [1] is 63.1 nM. In addition, the IC50 in data set [2] (Homo sapiens, L-363, 2 h) turned out to be 123 nM. The IC50 in data set [3] (Homo sapiens, JJN-3, 96 h) amounted to 1620 nM. Besides, the IC50 in data set [4] (Homo sapiens, KMS-12-BM, 96 h) was more than 10000 nM.
Taken in the same sequence, the figures for `COc1cc(C(=O)NC2CCOCC2)c(Cl)cc1Nc1nccc(-c2cc(C#N)c3c(c2)C(C)(C)CN3)n1` [Compound 108] were more than 260 °C, 11 nM, 3.8 nM, 39 nM and more than 3980 nM.
The corresponding values for `CC(=O)OC[C@@]1(C)CNc2c(C#N)cc(-c3ccnc(Nc4cc(C#N)ccc4C)n3)cc21` [Compound 125] are 213 °C, 13.8 nM, 3.6 nM, 182 nM and approximately 6920 nM.
Taken in the same sequence, the figures for `Cc1ccc(C#N)cc1Nc1nccc(-c2cc(C#N)c3c(c2)[C@@](C)(COC(=O)C(C)C)CN3)n1` [Compound 126] were 200 °C, 112 nM, approximately 6.9 nM, 151 nM and approximately 8910 nM.
As to `COCCOc1ccc(C#N)cc1Nc1nccc(-c2cc(C#N)c3c(c2)[C@@](C)(COC(C)=O)CN3)n1` [Compound 127], the melting point was found to be 158 °C. Moreover, in data set [1], the IC50 came out at 129 nM. The IC50 in data set [2] (Homo sapiens, L-363, 2 h) was determined as 11.5 nM. Also, the IC50 in data set [3] (Homo sapiens, JJN-3, 96 h) came out at 570 nM. Moreover, the IC50 in data set [4] (Homo sapiens, KMS-12-BM, 96 h) was more than 10000 nM.
The corresponding values for `CC(=O)OC[C@@]1(C)CNc2c(C#N)cc(-c3ccnc(Nc4cc(C#N)ccc4OCC4CC4)n3)cc21` [Compound 128] are 156 °C, 251 nM, 20.9 nM, 407 nM and more than 10000 nM.
Regarding `Cc1ccc(C#N)cc1Nc1nccc(-c2cc(C#N)c3c(c2)[C@@](C)(CO)CN3)n1` [Compound 129], the melting point was found to be 190 °C. In data set [1], the IC50 was 1.4 nM. In data set [2], the IC50 turned out to be 3.2 nM. For the same compound, the IC50 in data set [3] was determined as 330 nM. In addition, in data set [4], the IC50 is approximately 7940 nM.
The corresponding values for `Cc1ccc(C#N)cc1Nc1nccc(-c2cc(C#N)c3c(c2)[C@@](C)(CO)CN3)n1` [Compound 130] are 264 °C, 1.5 nM, 2.2 nM, 167 nM and 9770 nM.
The compound `Cc1ccc(C#N)cc1Nc1nccc(-c2cc(C#N)c3c(c2)[C@@](C)(CO)CN3)n1` [Compound 131] returned a melting point of 174 °C. Further, the IC50 in data set [1] amounted to 1.3 nM. The IC50 in data set [2] came to 4.7 nM. For the same compound, the IC50 in data set [3] was determined as 324 nM. Also, in data set [4], the IC50 is more than 10000 nM.
Regarding `Cc1ccc(C#N)cc1Nc1nccc(-c2cc(C#N)c3c(c2)[C@@](C)(CO)CN3)n1` [Compound 132], the melting point is 234 °C. Further, the IC50 in data set [1] stood at 1.3 nM. Moreover, the IC50 in data set [2] turned out to be 2.2 nM. Also, the IC50 in data set [3] was 128 nM. In addition, the IC50 in data set [4] was found to be 5010 nM.
Compound `Cc1ccc(C#N)cc1Nc1nccc(-c2cc(C#N)c3c(c2)[C@@](C)(CO)CN3)n1` [Compound 133] gave a melting point of 262 °C. The IC50 in data set [1] was found to be 0.7 nM. The IC50 in data set [2] was found to be 3 nM. Further, the IC50 in data set [3] was 170 nM. Moreover, the IC50 in data set [4] came out at 4360 nM.
With `[2H]C([2H])(O)[C@@]1(C)CNc2c(C#N)cc(-c3ccnc(Nc4cc(C#N)ccc4C)n3)cc21` [Compound 136], the melting point stood at 219 °C. Besides, the IC50 in data set [1] came to 1.7 nM. In data set [2] (Homo sapiens, L-363, 2 h), the IC50 is less than 0.66 nM. Also, in data set [3] (Homo sapiens, JJN-3, 96 h), the IC50 was determined as 269 nM. Besides, the IC50 in data set [4] (Homo sapiens, KMS-12-BM, 96 h) was more than 10000 nM.
The corresponding values for `Cc1ccc(C#N)cc1Nc1nccc(-c2cc(C#N)c3c(c2)[C@@](C)(COC(=O)CN)CN3)n1` [Compound 137] are 290 °C, 6 nM, 2.7 nM, 545 nM and approximately 10000 nM.
Taken in the same sequence, the figures for `Cc1ccc(C#N)cc1Nc1nccc(-c2cc(C#N)c3c(c2)[C@@](C)(COC(=O)[C@@H](N)C(C)C)CN3)n1` [Compound 139] were 202 °C, 56.2 nM, 26.9 nM, 302 nM and approximately 8910 nM.
The corresponding values for `Cc1ccc(C#N)cc1Nc1nccc(-c2cc(C#N)c3c(c2)[C@@](C)(COC(=O)[C@H](N)Cc2ccccc2)CN3)n1` [Compound 140] are 180 °C, 51.3 nM, 56.2 nM, 550 nM and approximately 9120 nM.
`Cc1ccc(C#N)cc1Nc1nccc(-c2cc(C#N)c3c(c2)[C@@](C)(COC(=O)[C@@H](C)N)CN3)n1` [Compound 141] showed a melting point of 212 °C. For the same compound, in data set [1], the IC50 turned out to be 8.7 nM. Further, the IC50 in data set [2] (Homo sapiens, L-363, 2 h) worked out at 2.2 nM. In data set [3] (Homo sapiens, JJN-3, 96 h), the IC50 was 33 nM. Besides, the IC50 in data set [4] (Homo sapiens, KMS-12-BM, 96 h) is more than 10000 nM.
Take `Cc1ccc(C#N)cc1Nc1nccc(-c2cc(C#N)c3c(c2)[C@@](C)(COC(=O)CC(=O)O)CN3)n1` [Compound 142a]: the melting point was 138 °C. Besides, the IC50 in data set [1] came to 12 nM. Moreover, the IC50 in data set [2] worked out at 2.2 nM. In data set [3], the IC50 worked out at 3630 nM. The IC50 in data set [4] (Homo sapiens, KMS-12-BM, 96 h) is more than 10000 nM.
The compound `Cc1ccc(C#N)cc1Nc1nccc(-c2cc(C#N)c3c(c2)[C@@](C)(COC(=O)CC(=O)O)CN3)n1` [Compound 142b] had a melting point of 214 °C. Also, in data set [1], the IC50 is 17 nM. Moreover, in data set [2], the IC50 was approximately 58.9 nM. Further, the IC50 in data set [3] was 977 nM. In data set [4], the IC50 is more than 10000 nM.
Compound `Cc1ccc(C#N)cc1Nc1nccc(-c2cc(C#N)c3c(c2)[C@@](C)(COS(=O)(=O)O)CN3)n1` [Compound 143] returned a melting point of more than 270 °C. Besides, the IC50 in data set [1] stood at 6.5 nM. Also, in data set [2] (Homo sapiens, L-363, 2 h), the IC50 was 12.3 nM. The IC50 in data set [3] (Homo sapiens, JJN-3, 96 h) was 200 nM. Further, in data set [4] (Homo sapiens, KMS-12-BM, 96 h), the IC50 was more than 10000 nM.
